# Experimental data as given in US20180188224A1, “METHOD FOR CONSTRUCTING A SENSORY SPACE” (CENTRE SCIENTIFIQUE ET TECHNIQUE DU BATIMENT (CSTB), priority 2015, published 2018).
# Where “and” joins values, the source holds several entries; their conditions need not be identical. Identical values can stand only once.
# What was measured:
# Format in all cases: in vivo, human
# [1] = system: four non-smoking volunteers (2 men and 2 women); test: Taste identification questionnaire, trained panel (count of 6 repetitions per subject in which the stimulus was given each taste label; level of recognition %); settings: for Level of Recognition %: Neutral / Level of Recognition %: Salty / Level of Recognition %: Sour / Level of Recognition %: Sweet: four subjects
# Protocol: (§1) In this test, four non-smoking volunteers (2 men and 2 women) were chosen from 12 people for their performance in taste recognition. Their mean age was 32 years, ranging from 24 to 40 years. […] These four people were trained for several months to recognize and detect the four basic tastes, and also regarding the procedures of sensory and physiological analysis.
# (§2) The four basic tastes (sweet, salty, sour and bitter) were used. The solutions were prepared with citric acid for the sour taste, caffeine for the bitter taste, sodium chloride for the salty taste and sucrose for the sweet taste (all purchased from Sigma Aldrich, France) in Evian water. Evian water was also used as control and blank. Each taste was prepared with the four concentrations mentioned in table 1.
# (§3) The amount of solution to be tested was standardized at 10 ml. In order to impregnate the whole of the oral cavity, the subjects kept the solution in their mouth for 5 s before swallowing it.
# (§4) The sessions were individual and the subjects were asked not to eat or drink anything for at least 1 h before the test. They arrived 15 min before the start of the session in order to acclimatize to the environmental conditions, in particular the temperature of the room (kept constant at 23° C.) and to be resting seated on a comfortable chair. The 16 solutions for testing and two additional samples of water containing solely Evian water, added to the references, were presented monadically following a test order determined from a “balanced incomplete block design”. During a session, 9 samples out of 18 were presented to minimize sensory fatigue. In addition, a sample of Evian was always tested as a “blank” sample in order to avoid the first-order effect (Lawless, H. T. & Heymann, H., 2010, Sensory evaluation of food: Principles and practices. Springer, New York) and was excluded from the analysis. A light signal was sent to give the instruction to test the sample. When the disturbance to the nervous system returned to its baseline level (after approximately 1 min), a second light signal indicated to the subjects that they should complete a questionnaire regarding the stimulus tested previously. The first part of the questionnaire was linked to the identification of the taste (i.e. determining the quality of the taste); the subjects had to choose between five labels: sweet, salty, sour, bitter or neutral. They then had to assign a taste intensity score on an 11-point scale (from 0 “not intense” (i.e. taste of Evian only) to 10 “very intense”) and finally to give a hedonic score on an 11-point scale (from 0 “very unpleasant” to 10 “very pleasant”, 5 being “neutral”).
# (§5) This procedure was repeated for each of the 9 stimuli. A session lasted approximately 45 min including a debriefing at the end of the test to ensure understanding of the sense of the signal variations. The experiment was repeated 12 times per subject, meaning that the data are composed of 6 data sets per subject and per product and 12 data sets for the Evian product per subject. Thus, the database consists of 432 samples.
# [2] = system: four non-smoking volunteers (2 men and 2 women); test: Taste intensity score, 11-point scale (0 not intense to 10 very intense); settings: concentration 4; averaged over 4 subjects, 6 repetitions each
# Protocol: as §1, §2, §3, §4, §5
# (§6) The effect of the taste on the hedonic and intensity scores was analyzed by an analysis of variance (ANOVA) including the product effect, the subject effect and the product-subject interaction. The subject effect was fixed because there were only 4 subjects and the results could only be applied to a particular schema. The differences were considered to be significant at a level of 0.05.
# [3] = system: four non-smoking volunteers (2 men and 2 women); test: Hedonic score, 11-point scale (0 very unpleasant to 10 very pleasant, 5 neutral); settings: each of the NaCl concentrations (one value given)
# Protocol: as §1, §2, §3, §4, §5, §6
smiles,measurement,setting,value
"[Cl-].[Na+] [NaCl, sodium chloride]",Individual recognition score: Neutral,"[1]; Subject 1, dilution 1",0
same,Individual recognition score: Salty,"[1]; Subject 1, dilution 1",6
same,Individual recognition score: Sour,"[1]; Subject 1, dilution 1",0
same,Individual recognition score: Sweet,"[1]; Subject 1, dilution 1",0
same,Individual recognition score: Neutral,"[1]; Subject 1, dilution 2",0
same,Individual recognition score: Salty,"[1]; Subject 1, dilution 2",6
same,Individual recognition score: Sour,"[1]; Subject 1, dilution 2",0
same,Individual recognition score: Sweet,"[1]; Subject 1, dilution 2",0
same,Individual recognition score: Neutral,"[1]; Subject 1, dilution 3",0
same,Individual recognition score: Salty,"[1]; Subject 1, dilution 3",6
same,Individual recognition score: Sour,"[1]; Subject 1, dilution 3",0
same,Individual recognition score: Sweet,"[1]; Subject 1, dilution 3",0
same,Individual recognition score: Neutral,"[1]; Subject 1, dilution 4",0
same,Individual recognition score: Salty,"[1]; Subject 1, dilution 4",6
same,Individual recognition score: Sour,"[1]; Subject 1, dilution 4",0
same,Individual recognition score: Sweet,"[1]; Subject 1, dilution 4",0
same,Individual recognition score: Neutral,"[1]; Subject 2, dilution 1",0
same,Individual recognition score: Salty,"[1]; Subject 2, dilution 1",6
same,Individual recognition score: Sour,"[1]; Subject 2, dilution 1",0
same,Individual recognition score: Sweet,"[1]; Subject 2, dilution 1",0
same,Individual recognition score: Neutral,"[1]; Subject 2, dilution 2",0
same,Individual recognition score: Salty,"[1]; Subject 2, dilution 2",6
same,Individual recognition score: Sour,"[1]; Subject 2, dilution 2",0
same,Individual recognition score: Sweet,"[1]; Subject 2, dilution 2",0
same,Individual recognition score: Neutral,"[1]; Subject 2, dilution 3",0
same,Individual recognition score: Salty,"[1]; Subject 2, dilution 3",6
same,Individual recognition score: Sour,"[1]; Subject 2, dilution 3",0
same,Individual recognition score: Sweet,"[1]; Subject 2, dilution 3",0
same,Individual recognition score: Neutral,"[1]; Subject 2, dilution 4",0
same,Individual recognition score: Salty,"[1]; Subject 2, dilution 4",6
same,Individual recognition score: Sour,"[1]; Subject 2, dilution 4",0
same,Individual recognition score: Sweet,"[1]; Subject 2, dilution 4",0
same,Individual recognition score: Neutral,"[1]; Subject 3, dilution 1",0
same,Individual recognition score: Salty,"[1]; Subject 3, dilution 1",6
same,Individual recognition score: Sour,"[1]; Subject 3, dilution 1",0
same,Individual recognition score: Sweet,"[1]; Subject 3, dilution 1",0
same,Individual recognition score: Neutral,"[1]; Subject 3, dilution 2",0
same,Individual recognition score: Salty,"[1]; Subject 3, dilution 2",6
same,Individual recognition score: Sour,"[1]; Subject 3, dilution 2",0
same,Individual recognition score: Sweet,"[1]; Subject 3, dilution 2",0
same,Individual recognition score: Neutral,"[1]; Subject 3, dilution 3",0
same,Individual recognition score: Salty,"[1]; Subject 3, dilution 3",6
same,Individual recognition score: Sour,"[1]; Subject 3, dilution 3",0
same,Individual recognition score: Sweet,"[1]; Subject 3, dilution 3",0
same,Individual recognition score: Neutral,"[1]; Subject 3, dilution 4",0
same,Individual recognition score: Salty,"[1]; Subject 3, dilution 4",6
same,Individual recognition score: Sour,"[1]; Subject 3, dilution 4",0
same,Individual recognition score: Sweet,"[1]; Subject 3, dilution 4",0
same,Individual recognition score: Neutral,"[1]; Subject 4, dilution 1",0
same,Individual recognition score: Salty,"[1]; Subject 4, dilution 1",5
same,Individual recognition score: Sour,"[1]; Subject 4, dilution 1",0
same,Individual recognition score: Sweet,"[1]; Subject 4, dilution 1",0
same,Individual recognition score: Neutral,"[1]; Subject 4, dilution 2",0
same,Individual recognition score: Salty,"[1]; Subject 4, dilution 2",6
same,Individual recognition score: Sour,"[1]; Subject 4, dilution 2",0
same,Individual recognition score: Sweet,"[1]; Subject 4, dilution 2",0
same,Individual recognition score: Neutral,"[1]; Subject 4, dilution 3",0
same,Individual recognition score: Salty,"[1]; Subject 4, dilution 3",6
same,Individual recognition score: Sour,"[1]; Subject 4, dilution 3",0
same,Individual recognition score: Sweet,"[1]; Subject 4, dilution 3",0
same,Individual recognition score: Neutral,"[1]; Subject 4, dilution 4",0
same,Individual recognition score: Salty,"[1]; Subject 4, dilution 4",6
same,Individual recognition score: Sour,"[1]; Subject 4, dilution 4",0
same,Individual recognition score: Sweet,"[1]; Subject 4, dilution 4",0
same,Level of Recognition %: Neutral,[1]; dilution 1,0%
same,Level of Recognition %: Salty,[1]; dilution 1,96%
same,Level of Recognition %: Sour,[1]; dilution 1,0%
same,Level of Recognition %: Sweet,[1]; dilution 1,0%
same,Level of Recognition %: Neutral,[1]; dilution 2,0%
same,Level of Recognition %: Salty,[1]; dilution 2,100%
same,Level of Recognition %: Sour,[1]; dilution 2,0%
same,Level of Recognition %: Sweet,[1]; dilution 2,0%
same,Level of Recognition %: Neutral,[1]; dilution 3,0%
same,Level of Recognition %: Salty,[1]; dilution 3,100%
same,Level of Recognition %: Sour,[1]; dilution 3,0%
same,Level of Recognition %: Sweet,[1]; dilution 3,0%
same,Level of Recognition %: Neutral,[1]; dilution 4,0%
same,Level of Recognition %: Salty,[1]; dilution 4,100%
same,Level of Recognition %: Sour,[1]; dilution 4,0%
same,Level of Recognition %: Sweet,[1]; dilution 4,0%
same,Individual recognition score: Bitter,"[1]; human, in vivo",0 (15×) and 1
same,Level of Recognition %: Bitter,"[1]; human, in vivo",4% and 0%
same,intensity score,[2],8.6±1.0
same,hedonic score,[3],1.3±0.9
